# Structures can show the parent of a compound that is named as a salt.
# Biological target: T1, TAK1-TAB1 fusion protein (Homo sapiens, UniProt O43318)
# T1 construct: purchased Carna
# T1 sequence (O43318 with tags, fused parts or gaps limits assumed): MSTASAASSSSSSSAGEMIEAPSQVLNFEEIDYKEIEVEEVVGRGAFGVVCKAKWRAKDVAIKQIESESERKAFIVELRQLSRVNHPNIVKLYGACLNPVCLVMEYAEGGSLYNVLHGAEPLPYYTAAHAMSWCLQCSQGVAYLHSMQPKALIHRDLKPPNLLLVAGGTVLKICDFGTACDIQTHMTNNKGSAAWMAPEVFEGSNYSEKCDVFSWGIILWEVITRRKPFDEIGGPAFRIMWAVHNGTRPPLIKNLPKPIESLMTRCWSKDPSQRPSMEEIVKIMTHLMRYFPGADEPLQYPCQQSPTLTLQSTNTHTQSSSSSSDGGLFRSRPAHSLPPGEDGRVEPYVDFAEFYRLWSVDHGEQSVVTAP
# Assay: TAK1 biochemical assay (AlphaScreen, GST-MAP2K7 substrate)
# Details: TAK1-TAB1 fusion protein, GST-MAP2K7 substrate; read-out: mean TAK1 IC50 (Col. A)
row,SMILES,IC50
1,"Cc1c(-c2ccccc2)oc2c(N)ncc(-c3cnn(C4CCNCC4)c3)c12 [Example 9, methyl-2-phenyl-4-[1-(piperidin-4-yl)-1H-pyrazol-4-yl]furo[2,3-c]pyridin-7-amine hydrochloride]",1000 to 10000 nM
2,"Cc1c(-c2cccc3ccsc23)oc2c(N)ncc(-c3cnn(C4CCNCC4)c3)c12 [Example 10, 2-(1-benzothiophen-7-yl)-3-methyl-4-[1-(piperidin-4-yl)-1H-pyrazol-4-yl]furo[2,3-c]pyridin-7-amine hydrochloride]",1000 to 10000 nM
3,"Cc1c(-c2ccc3[nH]ncc3c2)oc2c(N)ncc(-c3cnn(C4CCNCC4)c3)c12 [Example 11, 2-(1H-indazol-5-yl)-3-methyl-4-[1-(piperidin-4-yl)-1H-pyrazol-4-yl]furo[2,3-c]pyridin-7-amine hydrochloride]",1000 to 10000 nM
4,"Nc1ncc(-c2cnn(C3CCNCC3)c2)c2c(Cl)c(-c3ccc4[nH]ccc4c3)oc12 [Example 14, 3-chloro-2-(1H-indol-5-yl)-4-[1-(piperidin-4-yl)-1H-pyrazol-4-yl]furo[2,3-c]pyridin-7-amine hydrochloride]",1000 to 10000 nM
5,"Cn1cnc2cc(-c3oc4c(N)ncc(-c5cnn(C6CCNCC6)c5)c4c3Cl)cnc21 [Example 15, 3-chloro-2-(3-methyl-3H-imidazo[4,5-b]pyridine-6-yl)-4-[1-(piperidin-4-yl)-1H-pyrazol-4-yl]furo[2,3-c]pyridin-7-amine hydrochloride]",1000 to 10000 nM
6,"Nc1ncc(-c2cnn(C3CCNCC3)c2)c2c(Cl)c(-c3cccc4cnccc34)oc12 [Example 16, 3-chloro-2-(isoquinoolin-5-yl)-4-[1-(piperidin-4-yl)-1H-pyrazol-4-yl]furo[2,3-c]pyridin-7-amine]",1000 to 10000 nM
7,"Nc1ncc(-c2cnn(C3CCNCC3)c2)c2cc(-c3cccc4ccsc34)oc12 [Example 17, 4-{4-[7-amino-2-(1-benzothiophen-7-yl)furo[2,3-c]pyridine-4-yl]-1H-pyrazol-1-yl}piperidine hydrochloride]",1000 to 10000 nM
8,CC(C)(C)OC(=O)N1CCC(n2cc(-c3cnc(N)c4oc(-c5cccc6ccsc56)cc34)cn2)CC1 [Example 17A],> 10000 nM
9,"Nc1ncc(-c2cnn(C3CCNCC3)c2)c2cc(-c3csc4ccccc34)oc12 [Example 19, 2-(1-benzothiophen-3-yl)-4-[1-(piperidin-4-yl)-1H-pyrazol-4-yl]furo[2,3-c]pyridine-7-amine]",1000 to 10000 nM
10,"Nc1ccc(-c2cc3c(-c4cnn(C5CCNCC5)c4)cnc(N)c3o2)cn1 [Example 20, 2-(6-aminopyridin-3-yl)-4-[1-(piperidin-4-yl)-1H-pyrazol-4-yl]furo[2,3-c]pyridine-7-amine]",1000 to 10000 nM
11,"Nc1ncc(-c2cnn(C3CCNCC3)c2)c2cc(-c3ccoc3)oc12 [Example 21, 2-(furan-3-yl)-4-[1-(piperidin-4-yl)-1H-pyrazol-4-yl]furo[2,3-c]pyridine-7-amine]",1000 to 10000 nM
12,"Nc1ncc(-c2cnn(C3CCNCC3)c2)c2cc(-c3cccc(OC(F)(F)F)c3)oc12 [Example 22, 4-[1-(piperidin-4-yl)-1H-pyrazol-4-yl]-2-[3-(trifluoromethoxy)phenyl]furo[2,3-c]pyridine-7-amine]",> 10000 nM
13,"CS(=O)(=O)Nc1cccc(-c2cc3c(-c4cnn(C5CCNCC5)c4)cnc(N)c3o2)c1 [Example 23, N-(3-{7-amino-4-[1-(piperidin-4-yl)-1H-pyrazol-4-yl]furo[2,3-c]pyridine-2-yl}phenyl)methanesulfonamide]",1000 to 10000 nM
14,"CN(C)S(=O)(=O)Nc1cccc(-c2cc3c(-c4cnn(C5CCNCC5)c4)cnc(N)c3o2)c1 [Example 24, N′-(3-{7-amino-4-[1-(piperidin-4-yl)-1H-pyrazol-4-yl]furo[2,3-c]pyridine-2-yl}phenyl)-N,N-dimethylsulfuric diamide]",1000 to 10000 nM
15,"Nc1ncc(-c2cnn(C3CCNCC3)c2)c2cc(-c3ccc4[nH]c(=O)[nH]c4c3)oc12 [Example 25, 5-{7-amino-4-[1-(piperidin-4-yl)-1H-pyrazol-4-yl]furo[2,3-c]pyridine-2-yl}-1,3-dihydro-2H-benzimidazol-2-one]",1000 to 10000 nM
16,"Nc1ncc(-c2cnn(C3CCNCC3)c2)c2cc(-c3cccnc3)oc12 [Example 26, 4-[1-(piperidin-4-yl)-1H-pyrazol-4-yl]-2-(yridine-3-yl)furo[2,3-c]pyridine-7-amine]",1000 to 10000 nM
17,"Nc1ncc(-c2cnn(C3CCNCC3)c2)c2cc(-c3ccn[nH]3)oc12 [Example 27, 4-[1-(piperidin-4-yl)-1H-pyrazol-4-yl]-2-(1H-pyrazol-5-yl)furo[2,3-c]pyridine-7-amine]",1000 to 10000 nM
18,"Nc1ncc(-c2cnn(C3CCNCC3)c2)c2cc(-c3ccsc3)oc12 [Example 28, 4-[1-(piperidin-4-yl)-1H-pyrazol-4-yl]-2-(thiophen-3-yl)furo[2,3-c]pyridine-7-amine]",1000 to 10000 nM
19,"Nc1ncc(-c2cnn(C3CCNCC3)c2)c2cc(-c3ccc4cc[nH]c4c3)oc12 [Example 29, 2-(1H-indol-6-yl)-4-[1-(piperidin-4-yl)-1H-pyrazol-4-yl]furo[2,3-c]pyridin-7-amine]",1000 to 10000 nM
20,"Nc1ncc(-c2cnn(C3CCNCC3)c2)c2cc(-c3cccc4cccnc34)oc12 [Example 32, 4-[1-(piperidin-4-yl)-1H-pyrazol-4-yl]-2-(quinolin-8-yl)furo[2,3-c]pyridine-7-amine]",1000 to 10000 nM
21,"Nc1ncc(-c2cnn(C3CCNCC3)c2)c2cc(-c3cncc4ccccc34)oc12 [Example 34, 2-(isoquinolin-4-yl)-4-[1-(piperidin-4-yl)-1H-pyrazol-4-yl]furo[2,3-c]pyridine-7-amine]",1000 to 10000 nM
22,"Nc1ncc(-c2cnn(C3CCNCC3)c2)c2cc(-c3cccc4c3Sc3ccccc3S4)oc12 [Example 35, 4-[1-(piperidin-4-yl)-1H-pyrazol-4-yl]-2-(thianthren-1-yl)furo[2,3-c]pyridine-7-amine]",1000 to 10000 nM

# The next lines start with the values.
row,IC50,SMILES
1,100 to 1000 nM,O[C@H]1CC[C@H](n2cc(-c3cncc4oc(-c5cccc6ncsc56)cc34)cn2)CC1
2,1000 to 10000 nM,"Nc1ncc(-c2cnn(C3CCNCC3)c2)c2cc(-c3cc(C(F)(F)F)cc(C(F)(F)F)c3)oc12 [Example 1, 2-{(3,5-Bis-trifluoromethyl)phenyl}-4-(1-piperidin-4-yl-1H-pyrazol-4-yl)-furo[2,3-c]pyridin-7-ylamine]"
3,1000 to 10000 nM,"Nc1ncc(-c2cnn(C3CCNCC3)c2)c2cc(-c3ccccc3)oc12 [Example 2, 2-phenyl-4-[1-(piperidin-4-yl)-1H-pyrazol-4-yl]furo[2,3-c]pyridin-7-amine]"
4,1000 to 10000 nM,"Nc1ncc(-c2cnn(C3CCNCC3)c2)c2cc(-c3cccc4ccccc34)oc12 [Example 3, 2-(naphthalen-1-yl)-4-[1-(piperidin-4-yl)-1H-pyrazol-4-yl]furo[2,3-c]pyridin-7-amine]"
5,1000 to 10000 nM,"Nc1ncc(-c2cnn(C3CCNCC3)c2)c2cc(-c3cccc(Cl)c3Cl)oc12 [Example 4, 2-(2,3-dichlorophenyl)-4-[1-(piperidin-4-yl)-1H-pyrazol-4-yl]furo[2,3-c]pyridin-7-amine]"
6,1000 to 10000 nM,"COc1c(F)cccc1-c1cc2c(-c3cnn(C4CCNCC4)c3)cnc(N)c2o1 [Example 5, 2-(3-fluoro-2-methoxyphenyl)-4-[1-(piperidin-4-yl)-1H-pyrazol-4-yl]furo[2,3-c]pyridin-7-amine dihydrochloride]"
7,1000 to 10000 nM,"Nc1ncc(-c2cnn(C3CCNCC3)c2)c2cc(-c3cccc(C(F)(F)F)c3)oc12 [Example 6, 4-[1-(piperidin-4-yl)-1H-pyrazol-4-yl]-2-[3-(trifluoromethyl)phenyl]furo[2,3-c]pyridin-7-amine]"
8,1000 to 10000 nM,"Nc1ncc(-c2cnn(C3CCNCC3)c2)c2cc(-c3cc(F)cc(C(F)(F)F)c3)oc12 [Example 7, 2-[3-fluoro-5-(trifluoromethyl)phenyl]-4-[1-(piperidin-4-yl)-1H-pyrazol-4-yl]furo[2,3-c]pyridin-7-amine]"
9,1000 to 10000 nM,"Nc1ncc(-c2cnn(C3CCNCC3)c2)c2cc(-c3cc(F)cc(F)c3)oc12 [Example 8, 2-(3,5-difluorophenyl)-4-[1-(piperidin-4-yl)-1H-pyrazol-4-yl]furo[2,3-c]pyridin-7-amine]"
10,100 to 1000 nM,"Nc1ncc(-c2cnn(C3CCNCC3)c2)c2c(Cl)c(-c3ccccc3)oc12 [Example 12, 3-chloro-2-phenyl-4-[1-(piperidin-4-yl)-1H-pyrazol-4-yl]furo[2,3-c]pyridin-7-amine hydrochloride]"
11,< 100 nM,"Nc1ncc(-c2cnn(C3CCNCC3)c2)c2c(Cl)c(-c3cccc4ccsc34)oc12 [Example 13, 2-(1-benzothiophen-7-yl)-3-chloro-4-[1-(piperidin-4-yl)-1H-pyrazol-4-yl]furo[2,3-c]pyridin-7-amine hydrochloride]"
12,100 to 1000 nM,"Nc1ccc(-c2nc(-c3cc4c(-c5cnn(C6CCNCC6)c5)cnc(N)c4o3)ccc2N)nc1Cl [Example 30, 6-{7-amino-4-[1-(piperidin-4-yl)-1H-pyrazol-4-yl]furo[2,3-c]pyridine-2-yl}-6′-chloro-2,2′-bipyridine-3,5′-diamine]"
13,100 to 1000 nM,"Nc1cncc(-c2cc3c(-c4cnn(C5CCNCC5)c4)cnc(N)c3o2)c1 [Example 31, 2-(5-aminopyridin-3-yl)-4-[1-(piperidin-4-yl)-1H-pyrazol-4-yl]furo[2,3-c]pyridine-7-amine]"
14,100 to 1000 nM,"Nc1ncc(-c2cnn(C3CCNCC3)c2)c2cc(-c3cccc4c3oc3ccccc34)oc12 [Example 36, 2-(dibenzo[b,d]furan-4-yl)-4-[1-(piperidin-4-yl)-1H-pyrazol-4-yl]furo[2,3-c]pyridine-7-amine]"

# Reference: patent US8378104B2 (OSI Pharmaceuticals, LLC, priority 2010, dated 2013)
